In patent US20180116216A1, “MICROBICIDAL COMPOSITION CONTAINING GLUTARALDEHYDE AND ORTHOPHENYLPHENOL” (Dow Global Technologies LLC, priority 2015, published 2018):
Read-outs that look alike come from different tables or passages of the source.

System: Bacterial Pool
Assay: Dow time-kill test in pH 7.4 hand dish-washing liquid, with synergy index (Kull)
Format: cell-based
Details: for Concentration required to achieve >=4 Log bacterial counts reduction of tested biocides: 37° C., pool of seven bacteria 1×10^6~1×10^7 CFU/ml in pH 7.4 hand dish-washing liquid, active ingredient basis, unit ppm from b8, not given

Structure (SMILES): O=CCCCC=O [Glutaraldehyde, Pentane-1,5-dial]
- Concentration required to achieve >=4 Log bacterial counts reduction of tested biocides (24 h): 100 ppm
- Concentration for >=4 log bacterial kill (Table 4, Bacterial Pool, 24 hours, glutaraldehyde alone (QA) or in the mixture (Qa), read-out: Minimum Inhibitory Concentration (ppm) Glut): 100 µg/mL
- Minimum Inhibitory Concentration (ppm) Glut (Table 5, Bacterial Pool, 24 hours, glutaraldehyde alone (QA) or in the mixture (Qa)): 100 ppm

Structure (SMILES): Oc1ccccc1-c1ccccc1.[Na] [SOPP alone, sodium orthophenylphenol]
- Concentration required to achieve >=4 Log bacterial counts reduction of tested biocides (24 h): 358.5 ppm
- Concentration for >=4 log bacterial kill (24 h, read-out: Minimum Inhibitory Concentration (ppm) SOPP): 358 µg/mL
- Minimum Inhibitory Concentration (ppm) SOPP (Table 5, Bacterial Pool, 24 hours, SOPP alone (QB) or in the mixture (Qb)): 358.5 ppm
